From publication PMC7275043 (Nature Communications, 2020)

Legend:
[1] = mouse, in vivo, iv, 10 mg/kg
[2] = system: influenza A strains (H1N1, H3N2, H3N3, H3N8, H5N1); type: cell-based
[3] = molecular target: PB2 (FLAG-tagged, A/WSN-FLAG) (Influenza A virus, UniProt P03427); type: cell-based, influenza A/WSN/1933(H1N1)
[4] = system: influenza B virus strains (B/Mem, B/Wis, B/Bris); type: cell-based
influenza B/Mem [5] = system: influenza B/Mem; set-up: species or system BALB/c mice; settings: mouse, in vivo, iv, 2.5 mg/kg
influenza B/Mem [6] = type: cell-based, influenza B/Memphis/12/97
[7] = system: ZIKV (African strain MR766); assay: microbe, parasite or virus in culture; type: cell-based, Zika virus
[8] = molecular target: mouse PrP^C in L929 15.9 and CAD5 cells (Mus musculus, UniProt P04925)
Sequence of mouse PrP^C in L929 15.9 and CAD5 cells (P04925 23-230 limits assumed): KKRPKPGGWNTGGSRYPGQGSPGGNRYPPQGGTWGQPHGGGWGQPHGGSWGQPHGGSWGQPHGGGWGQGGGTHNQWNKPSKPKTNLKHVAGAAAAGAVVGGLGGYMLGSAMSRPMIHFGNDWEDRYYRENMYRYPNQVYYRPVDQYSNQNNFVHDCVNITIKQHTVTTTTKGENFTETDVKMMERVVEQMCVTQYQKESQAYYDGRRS

influenza B/Mem [9] = type: cell-based, influenza B/Memphis/12/97; remark: listed apart in the source
[10] = system: PB2CB from influenza B/Mem (PB2IBV); type: biochemical
[11] = system: influenza A strains: H1N1 strain A/PR8 and H5N1 strain A/NIBRG-14; type: cell-based
[12] = molecular target: the molecule itself

Sequence of PB2 (FLAG-tagged, A/WSN-FLAG) (P03427 whole entry, looked up): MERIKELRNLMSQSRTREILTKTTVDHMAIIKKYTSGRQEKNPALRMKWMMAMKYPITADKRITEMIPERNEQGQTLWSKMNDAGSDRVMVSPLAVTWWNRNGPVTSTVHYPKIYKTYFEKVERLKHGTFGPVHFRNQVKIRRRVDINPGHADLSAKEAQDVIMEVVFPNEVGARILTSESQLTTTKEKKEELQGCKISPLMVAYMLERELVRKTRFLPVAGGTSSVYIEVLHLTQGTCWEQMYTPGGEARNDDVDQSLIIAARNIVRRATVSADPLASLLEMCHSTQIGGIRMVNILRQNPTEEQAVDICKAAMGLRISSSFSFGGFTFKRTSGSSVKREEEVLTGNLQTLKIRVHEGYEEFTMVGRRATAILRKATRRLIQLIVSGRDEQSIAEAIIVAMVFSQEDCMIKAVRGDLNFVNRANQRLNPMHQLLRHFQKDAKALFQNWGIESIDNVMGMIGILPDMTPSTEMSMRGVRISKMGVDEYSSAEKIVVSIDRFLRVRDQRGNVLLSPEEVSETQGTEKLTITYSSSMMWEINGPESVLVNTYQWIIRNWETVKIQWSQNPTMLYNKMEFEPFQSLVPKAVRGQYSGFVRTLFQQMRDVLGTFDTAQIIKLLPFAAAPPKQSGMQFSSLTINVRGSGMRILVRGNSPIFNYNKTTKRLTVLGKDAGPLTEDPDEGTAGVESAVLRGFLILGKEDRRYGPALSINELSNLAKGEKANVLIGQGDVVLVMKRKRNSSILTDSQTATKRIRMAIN

With Ac-WDLIQLIVSDGSDLIQLIVSD-NH2 [12B] the “blood analysis and histopathological evaluation of all major organs” value [1] was “revealed no abnormalities”, the “antiviral activity on influenza A strains with APR polymorphisms” value [2] was “retains activity against all these influenza A strains” and the “soluble PB2 in infected cells” value [3] was “reduction of soluble PB2”. For the same molecule, the “antiviral activity in time of addition assays and pretreatment of influenza B virion particles” value [4] was “showed no antiviral activity”, the “effect on replication of influenza B virus strains” value [4] was “did not interfere with the replication” and the “influenza B replication in the murine infection model (viral load in lungs)” value (influenza B/Mem [5]) was “not affected”. For the same molecule, the “aspecific toxic effects on HEK 293T cells” value (HEK 293T cells) was “no aspecific toxic effects were observed”, the “aspecific toxic effects on MDCK cells” value (MDCK cells) was “no aspecific toxic effects were observed” and the “protection against cytopathic effects of influenza B” value (influenza B/Mem [6]) was “no protection against cytopathic effects”. The “interference with ZIKV replication” value [7] was “no interference with ZIKV replication is observed”, the “conversion of PrP to the aggregated prion state (PrP^SC)” value [8] was “incapable to convert PrP” and the “influenza B replication in multicycle replication assay” value (influenza B/Mem [9]) was “unaffected”. The “effect on aggregation or conformational stability of PB2IBV (Th-T, ANS)” value [10] was “showed no effect on the aggregation or conformational stability”.

For `C[C@@]1(O)[C@H](O)[C@@H](CO)O[C@H]1n1ccc2c(N)ncnc21` [7-DMA, 7-deaza-2′-C-methyladenosine, reference compound], the “aspecific toxicity on the mammalian host cell” value (Vero E6 cells) was “did not originate from aspecific toxicity” and the IC50 ([7]; Zika virus, Vero C1008, 48 h, n = 3, read-out: IC50, fraction of ZIKV-infected cells) was 4.74 ± 0.31 µM.

With “Ac-RLIQLIVSRPPRLIQLIVSR-NH2 [compound 12]” the “aspecific cytotoxic effects on MDCK cells” value (MDCK cells) was “did not originate from aspecific cytotoxic effects” and the “amount of newly produced virus (TCID50 titration), antiviral screen” value [11] was “showed the most pronounced effect”.

B1: peptide 12B (peptide)
peptide: WDLIQLIVSDGSDLIQLIVSD
notes: also called amyloid peptide 12B; synthetic amyloid 12B; source: synthetic peptide
B1: binds [12].
